Laboratory results taken from patent US9062119B2, “Modified peptide toxins” (University of Debrecen, priority 2011, dated 2015).
Like-named read-outs stand apart in the source and are kept apart here. Where a SMILES comes first, the peptide text is derived from it.

Tests used:
[1] = target: T1, Kv1.3 channels (Homo sapiens, UniProt P22001); assay: Whole-cell patch-clamp block of Kv1.3 currents in activated human peripheral T lymphocytes; format: cell-based
T1 construct: endogenous in cells
Description: (§1) Dose-response relationships of the synthetic wild-type toxin and the single and double mutants on Kv1.3 channels The blocking efficiency of the toxins was tested on activated lymphocytes. The remaining current fraction (RCF) was calculated as I/I0, where I and I0 represent the whole-cell current amplitude in the presence and absence of the toxin at the indicated concentrations, respectively. Data points are plotted with error bars representing SEM and were fitted with a Hill-equation to obtain the Kd of the binding.
(§2) Kv1.3 currents were measured in human peripheral T lymphocytes. Heparinized human peripheral venous blood was obtained from healthy volunteers. Mononuclear cells were separated by Ficoll-Hypaque density gradient centrifugation. Collected cells were washed twice with Ca^2+ and Mg^2+ free Hank's solution containing 25 mM HEPES buffer (pH 7.4). Cells were cultured in a 5% CO2 incubator at 37° C. in 24 well culture plates in RPMI-1640 supplements with 10% FCS (Sigma-Aldrich, Hungary) 100 μg/ml penicillin, 100 μg/ml streptomycin and 2 mM L-glutamine at 0.5×10^6/ml density for 3-4 days. The culture medium also contained 2.5 or 5 μg/ml of phytohemagglutinin A (PHA-P, Sigma-Aldrich Kft, Hungary) to increase K^+ channel expression [Bagdany M, et al. Mol Pharmacol 2005; 67:1034-1044].
(§3) Whole-cell currents were measured in voltage-clamped cells using Axopatch 200A and Multiclamp 700B amplifiers connected to a personal computer using Axon Digidata 1200 and 1322A data acquisition hardware, respectively (Molecular Devices Inc., Sunnyvale, Calif.). Series resistance compensation up to 70% was used to minimize voltage errors and achieve good voltage-clamp conditions. […] The measured osmolarity of the external solutions was between 302 and 308 mOsm. […] The measured osmolarity of the internal solutions was approximately 295 mOsm. Bath perfusion around the measured cell with different test solutions was achieved using a gravity-flow perfusion system. […]

[2] = tested on: Kv1.3 channels; assay: as above; format: cell-based
Description: as §1, §2, §3

[3] = target: T1, Kv1.3 channels; details: natural toxin, Bagdany et al., 2005; cited from earlier work
[4] = target: T2, hKv1.2 (Homo sapiens, UniProt P16389); details: natural toxin, Bagdany et al., 2005, read-out: Kd for Kv1.2, cited from earlier work
T2 construct: expressed in transfected cells; host or cells: Cos-7 cells, co-transfected with a separate GFP plasmid

[5] = tested on: Kv1.3; assay: Literature block of Kv1.3 by ADWX-1
Source text: Han, S et al. have applied a structural approach [Han S et al, J Biol Chem 2008; 283(27):19058-19065.] to improve Kv1.3 selectivity of scorpion toxins. The authors started from the BmKTX scorpion toxin (Bhutus martensi) and designed a peptide with three point mutations based on binding studies to the Kv1.3 K channel at the molecular interaction level. Specifically, glycine (G) 11 was substituted with arginine (R), isoleucine (I) 28 with threonine (T) and aspartate (D) 33 with histidine (H) (BmKTX-Arg11Thr28His33 or ADWX-1 in short). […] 2009 231(1): 59-87.].

[6] = tested on: Kv1.3; details: found by Cahalan and Chandy 2009; read-out: IC50 for block of Kv1.3; cited from earlier work

T2 sequence (P16389 whole entry): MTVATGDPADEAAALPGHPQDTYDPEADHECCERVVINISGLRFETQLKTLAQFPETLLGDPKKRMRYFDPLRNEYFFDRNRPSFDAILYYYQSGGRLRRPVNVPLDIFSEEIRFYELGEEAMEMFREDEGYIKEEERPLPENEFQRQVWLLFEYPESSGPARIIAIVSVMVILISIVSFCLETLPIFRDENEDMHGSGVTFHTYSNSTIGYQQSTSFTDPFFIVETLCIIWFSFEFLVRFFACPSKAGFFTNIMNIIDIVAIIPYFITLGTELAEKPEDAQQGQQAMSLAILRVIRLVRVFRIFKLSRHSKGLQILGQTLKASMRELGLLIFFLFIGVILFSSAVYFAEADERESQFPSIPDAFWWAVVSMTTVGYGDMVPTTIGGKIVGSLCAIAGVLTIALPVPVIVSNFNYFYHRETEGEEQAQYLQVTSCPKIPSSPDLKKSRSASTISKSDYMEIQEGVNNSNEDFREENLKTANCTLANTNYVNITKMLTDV
T1 sequence (P22001 whole entry): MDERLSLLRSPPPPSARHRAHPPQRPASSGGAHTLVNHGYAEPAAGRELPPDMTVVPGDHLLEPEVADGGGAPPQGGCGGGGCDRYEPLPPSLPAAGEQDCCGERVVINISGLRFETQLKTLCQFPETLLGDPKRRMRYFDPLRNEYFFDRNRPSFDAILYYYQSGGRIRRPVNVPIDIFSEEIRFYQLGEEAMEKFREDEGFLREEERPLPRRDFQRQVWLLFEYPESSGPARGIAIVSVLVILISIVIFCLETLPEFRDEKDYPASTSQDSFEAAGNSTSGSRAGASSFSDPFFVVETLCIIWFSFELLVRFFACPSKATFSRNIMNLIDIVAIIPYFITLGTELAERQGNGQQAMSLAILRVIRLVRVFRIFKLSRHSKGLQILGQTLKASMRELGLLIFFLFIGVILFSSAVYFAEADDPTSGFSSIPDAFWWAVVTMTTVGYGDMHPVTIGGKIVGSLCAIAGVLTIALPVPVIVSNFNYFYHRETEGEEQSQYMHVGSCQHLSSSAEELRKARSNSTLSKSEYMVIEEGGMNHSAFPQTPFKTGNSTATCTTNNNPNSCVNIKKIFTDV

Question: Which Kd [1] does the source give for `CSCC[C@@H]1NC(=O)[C@@H]2CSSC[C@H](NC(=O)[C@H](CCC(=O)O)NC(=O)[C@H](CCCCN)NC(=O)[C@H](CC(N)=O)NC(=O)[C@H](C)NC(=O)[C@H](C)NC(=O)[C@H](C)N)C(=O)N[C@@H]([C@@H](C)O)C(=O)NCC(=O)N3CCC[C@H]3C(=O)N[C@@H](CCC(N)=O)C(=O)N[C@@H](Cc3c[nH]cn3)C(=O)N[C@H]3CSSC[C@H](NC(=O)[C@H](CCCCN)NC(=O)[C@H](CCCNC(=N)N)NC(=O)[C@H](CC(N)=O)NC1=O)C(=O)N[C@@H](CCCCN)C(=O)N[C@H]1CSSC[C@H](NC(=O)[C@H](Cc4ccccc4)NC(=O)[C@H](CC(N)=O)NC(=O)[C@H]([C@@H](C)O)NC3=O)C(=O)N[C@@H](CCCNC(=N)N)C(=O)N[C@@H](CC(=O)O)C(=O)N[C@@H](C)C(=O)N[C@@H](CCCCN)C(=O)N[C@@H](CSSC[C@@H](C(=O)N[C@@H](CCCCN)C(=O)O)NC(=O)[C@H](CC(N)=O)NC(=O)[C@H]([C@@H](C)O)NC1=O)C(=O)N[C@@H]([C@@H](C)O)C(=O)N[C@@H](Cc1c[nH]cn1)C(=O)NCC(=O)N[C@@H](CCCCN)C(=O)N2` [(N-AAAN, K16D, N17A, F32T)] (HELM PEPTIDE1{A.A.A.N.K.E.C.T.G.P.Q.H.C.T.N.F.C.R.D.A.K.C.T.H.G.K.C.M.N.R.K.C.K.C.T.N.C.K}$PEPTIDE1,PEPTIDE1,7:R3-27:R3|PEPTIDE1,PEPTIDE1,13:R3-32:R3|PEPTIDE1,PEPTIDE1,17:R3-34:R3|PEPTIDE1,PEPTIDE1,22:R3-37:R3$$$V2.0; N-terminus and C-terminus assumed; bridges inferred) here?
Answer: 394 nM

Question: Which “selectivity ratio SR=Kd[1.2]/Kd[1.3]” value [2] does the source give for Anuroctoxin [natural toxin] here?
Answer: 9

Question: What about the “selectivity for Kv1.3 over Kv1.2” value ([2]; ratio of Kd,Kv1.2 and Kd,Kv1.3) of the same compound?
Answer: 9 fold

Question: And the Kd [3]?
Answer: 0.73 nM

Question: What about the Kd ([4]; listed as Anuroctoxin) of the same compound?
Answer: 6.14 nM

Question: And the Kd [4]?
Answer: 6.1 nM

Question: With BmKTX-Arg11Thr28His33 [ADWX-1] as the compound, how does the “lower potency of Cahalan/Chandy value versus Han value” [5] read?
Answer: 1000 fold

Question: What about the IC50 [6] of the same compound?
Answer: 1.2 nM
